Data from patent US10202361B2, “Pyridazinones as herbicides” (E I DU PONT DE NEMOURS AND COMPANY, priority 2014, dated 2019).

Legend:
Format in all cases: in vivo
[1] = tested on: velvetleaf (Abutilon theophrasti); test: Test A pre-/postemergence greenhouse herbicide test; settings: 0 to 100 scale (0 no effect, 100 complete control), approx. 10 d
Text: (§1) Seeds of plant species selected from barnyardgrass (Echinochloa crus-galli), crabgrass, Large (large crabgrass, Digitaria sanguinalis), foxtail, giant (giant foxtail, Setaria faberii), morningglory (Ipomoea spp.), pigweed (Amaranthus retroflexus), velvetleaf (Abutilon theophrasti), wheat (Triticum aestivum), and corn (Zea mays) were planted into a blend of loam soil and sand and treated preemergence with a directed soil spray using test chemicals formulated in a non-phytotoxic solvent mixture which included a surfactant. At the same time these species were also treated with postemergence applications of test chemicals formulated in the same manner.
(§2) Plants ranged in height from 2 to 10 cm and were in the one- to two-leaf stage for the postemergence treatment. Treated plants and untreated controls were maintained in a greenhouse for approximately 10 d, after which time all treated plants were compared to untreated controls and visually evaluated for injury. Plant response ratings, summarized in Table A, are based on a 0 to 100 scale where 0 is no effect and 100 is complete control. A dash (-) response means no test result.

[2] = tested on: morningglory (Ipomoea spp.); test: as above; settings: 0 to 100 scale (0 no effect, 100 complete control), approx. 10 d
Text: as §1, §2

[3] = tested on: foxtail, giant (giant foxtail, Setaria faberii); test: as above; settings: 0 to 100 scale (0 no effect, 100 complete control), approx. 10 d
Text: as §1, §2

[4] = tested on: barnyardgrass (Echinochloa crus-galli); test: as above; settings: 0 to 100 scale (0 no effect, 100 complete control), approx. 10 d
Text: as §1, §2

[5] = tested on: crabgrass, Large (large crabgrass, Digitaria sanguinalis); test: as above; settings: 0 to 100 scale (0 no effect, 100 complete control), approx. 10 d
Text: as §1, §2

[6] = tested on: wheat (Triticum aestivum); test: as above; settings: 0 to 100 scale (0 no effect, 100 complete control), approx. 10 d
Text: as §1, §2

[7] = tested on: pigweed (Amaranthus retroflexus); test: as above; settings: 0 to 100 scale (0 no effect, 100 complete control), approx. 10 d
Text: as §1, §2

corn (Zea mays) = test: as above; settings: 0 to 100 scale (0 no effect, 100 complete control), approx. 10 d
Text: as §1, §2

rice (Oryza sativa) = test: Test B flooded paddy test; settings: Flood, 125 g ai/ha; scale of 0 to 100, 0 is no effect, 100 is complete control; 13 to 15 d
Method: (§3) Plant species in the flooded paddy test selected from rice (Oryza sativa), small-flower sedge, umbrella (small-flower umbrella sedge, Cyperus difformis), ducksalad (Heteranthera limosa), and barnyardgrass (Echinochloa crus-galli) were grown to the 2-leaf stage for testing. At time of treatment, test pots were flooded to 3 cm above the soil surface, treated by application of test compounds directly to the paddy water, and then maintained at that water depth for the duration of the test. Treated plants and controls were maintained in a greenhouse for 13 to 15 d, after which time all species were compared to controls and visually evaluated. Plant response ratings, summarized in Table B, are based on a scale of 0 to 100 where 0 is no effect and 100 is complete control. A dash (-) response means no test result.

[8] = tested on: sedge, umbrella (small-flower umbrella sedge, Cyperus difformis); test: Test B flooded paddy test; settings: Flood, 125 g ai/ha; scale of 0 to 100, 0 is no effect, 100 is complete control; 13 to 15 d
Method: as §3

[9] = tested on: barnyardgrass (Echinochloa crus-galli); test: Test B flooded paddy test; settings: Flood, 125 g ai/ha; scale of 0 to 100, 0 is no effect, 100 is complete control; 13 to 15 d
Method: as §3

[10] = tested on: ducksalad (Heteranthera limosa); test: Test B flooded paddy test; settings: Flood, 125 g ai/ha; scale of 0 to 100, 0 is no effect, 100 is complete control; 13 to 15 d
Method: as §3

Row | SMILES | Plant response rating, Velvetleaf ([1]; Postemergence, 125 g ai/ha) | Plant response rating, Velvetleaf ([1]; Postemergence, 500 g ai/ha) | Plant response rating, Velvetleaf ([1]; Preemergence, 125 g ai/ha) | Plant response rating, Velvetleaf ([1]; Preemergence, 500 g ai/ha) | Plant response rating, Morningglory ([2]; Postemergence, 125 g ai/ha) | Plant response rating, Morningglory ([2]; Postemergence, 500 g ai/ha) | Plant response rating, Morningglory ([2]; Preemergence, 125 g ai/ha) | Plant response rating, Morningglory ([2]; Preemergence, 500 g ai/ha) | Plant response rating, Foxtail, Giant ([3]; Postemergence, 125 g ai/ha) | Plant response rating, Foxtail, Giant ([3]; Postemergence, 500 g ai/ha) | Plant response rating, Foxtail, Giant ([3]; Preemergence, 125 g ai/ha) | Plant response rating, Foxtail, Giant ([3]; Preemergence, 500 g ai/ha) | Plant response rating, Barnyardgrass ([4]; Postemergence, 125 g ai/ha) | Plant response rating, Barnyardgrass ([4]; Postemergence, 500 g ai/ha) | Plant response rating, Barnyardgrass ([4]; Preemergence, 125 g ai/ha) | Plant response rating, Barnyardgrass ([4]; Preemergence, 500 g ai/ha) | Plant response rating, Crabgrass, Large ([5]; Postemergence, 125 g ai/ha) | Plant response rating, Crabgrass, Large ([5]; Postemergence, 500 g ai/ha) | Plant response rating, Crabgrass, Large ([5]; Preemergence, 125 g ai/ha) | Plant response rating, Crabgrass, Large ([5]; Preemergence, 500 g ai/ha) | also measured
1 | CCCOc1cc(=O)n(-c2ccc(C(F)(F)F)cc2)nc1Cc1ccnc(C(F)(F)F)c1 [Compound 19] | 10 | 50 | 0 | 10 | 10 | 30 | 0 | 10 | 10 | 20 | 40 | 70 | 10 | 20 | 0 | 10 | 10 | 20 | 70 | 90 | Plant response rating, Wheat ([6]; Postemergence, 125 g ai/ha): 0; Plant response rating, Wheat ([6]; Postemergence, 500 g ai/ha): 10; Plant response rating, Wheat ([6]; Preemergence, 125 g ai/ha): 0; Plant response rating, Wheat ([6]; Preemergence, 500 g ai/ha): 0; Plant response rating, Pigweed ([7]; Postemergence, 125 g ai/ha): 80; Plant response rating, Pigweed ([7]; Postemergence, 500 g ai/ha): 80; Plant response rating, Pigweed ([7]; Preemergence, 125 g ai/ha): 60; Plant response rating, Pigweed ([7]; Preemergence, 500 g ai/ha): 70; Plant response rating, Corn (corn (Zea mays); Postemergence, 125 g ai/ha): 10; Plant response rating, Corn (corn (Zea mays); Postemergence, 500 g ai/ha): 10; Plant response rating, Corn (corn (Zea mays); Preemergence, 125 g ai/ha): 0; Plant response rating, Corn (corn (Zea mays); Preemergence, 500 g ai/ha): 0; Plant response rating, Rice (rice (Oryza sativa)): 0; Plant response rating, Sedge, Umbrella [8]: 0; Plant response rating, Barnyardgrass [9]: 0; Plant response rating, Ducksalad [10]: 0
2 | CN(C)c1cc(=O)n(-c2ccc(F)cc2)nc1Cc1ccnc(C(F)(F)F)c1 [Compound 20] | 60 | 70 | 20 | 50 | 50 | 100 | 10 | 60 | 40 | 80 | 80 | 100 | 50 | 90 | 20 | 90 | 50 | 90 | 100 | 100 | Plant response rating, Wheat ([6]; Postemergence, 125 g ai/ha): 0; Plant response rating, Wheat ([6]; Postemergence, 500 g ai/ha): 50; Plant response rating, Wheat ([6]; Preemergence, 125 g ai/ha): 0; Plant response rating, Wheat ([6]; Preemergence, 500 g ai/ha): 30; Plant response rating, Pigweed ([7]; Postemergence, 125 g ai/ha): 90; Plant response rating, Pigweed ([7]; Postemergence, 500 g ai/ha): 100; Plant response rating, Pigweed ([7]; Preemergence, 125 g ai/ha): 100; Plant response rating, Pigweed ([7]; Preemergence, 500 g ai/ha): 100; Plant response rating, Corn (corn (Zea mays); Postemergence, 125 g ai/ha): 30; Plant response rating, Corn (corn (Zea mays); Postemergence, 500 g ai/ha): 60; Plant response rating, Corn (corn (Zea mays); Preemergence, 125 g ai/ha): 0; Plant response rating, Corn (corn (Zea mays); Preemergence, 500 g ai/ha): 10; Plant response rating, Rice (rice (Oryza sativa)): 0; Plant response rating, Sedge, Umbrella [8]: 0; Plant response rating, Barnyardgrass [9]: 0; Plant response rating, Ducksalad [10]: 0
3 | CN(C)c1cc(=O)n(-c2ccc(C(F)(F)F)cc2)nc1Cc1ccnc(C(F)(F)F)c1 [Compound 21] | 60 | 80 | 0 | 20 | 30 | 60 | 0 | 10 | 30 | 50 | 30 | 70 | 40 | 50 | 10 | 30 | 20 | 60 | 80 | 100 | Plant response rating, Wheat ([6]; Postemergence, 125 g ai/ha): 20; Plant response rating, Wheat ([6]; Postemergence, 500 g ai/ha): 30; Plant response rating, Wheat ([6]; Preemergence, 125 g ai/ha): 0; Plant response rating, Wheat ([6]; Preemergence, 500 g ai/ha): 10; Plant response rating, Pigweed ([7]; Postemergence, 125 g ai/ha): 90; Plant response rating, Pigweed ([7]; Postemergence, 500 g ai/ha): 90; Plant response rating, Pigweed ([7]; Preemergence, 125 g ai/ha): 100; Plant response rating, Pigweed ([7]; Preemergence, 500 g ai/ha): 100; Plant response rating, Corn (corn (Zea mays); Postemergence, 125 g ai/ha): 20; Plant response rating, Corn (corn (Zea mays); Postemergence, 500 g ai/ha): 40; Plant response rating, Corn (corn (Zea mays); Preemergence, 125 g ai/ha): 0; Plant response rating, Corn (corn (Zea mays); Preemergence, 500 g ai/ha): 0; Plant response rating, Rice (rice (Oryza sativa)): 0; Plant response rating, Sedge, Umbrella [8]: 90; Plant response rating, Barnyardgrass [9]: 0; Plant response rating, Ducksalad [10]: 0
4 | CCCc1cc(=O)n(-c2ccc(F)cc2)nc1Cc1ccnc(C(F)(F)F)c1 [Compound 24] | 80 | 80 | 30 | 80 | 50 | 90 | 30 | 80 | 70 | 80 | 100 | 100 | 70 | 90 | 70 | 100 | 70 | 90 | 100 | 100 | Plant response rating, Wheat ([6]; Postemergence, 125 g ai/ha): 50; Plant response rating, Wheat ([6]; Postemergence, 500 g ai/ha): 70; Plant response rating, Wheat ([6]; Preemergence, 125 g ai/ha): 30; Plant response rating, Wheat ([6]; Preemergence, 500 g ai/ha): 50; Plant response rating, Pigweed ([7]; Postemergence, 125 g ai/ha): 100; Plant response rating, Pigweed ([7]; Postemergence, 500 g ai/ha): 100; Plant response rating, Pigweed ([7]; Preemergence, 125 g ai/ha): 100; Plant response rating, Pigweed ([7]; Preemergence, 500 g ai/ha): 100; Plant response rating, Corn (corn (Zea mays); Postemergence, 125 g ai/ha): 50; Plant response rating, Corn (corn (Zea mays); Postemergence, 500 g ai/ha): 60; Plant response rating, Corn (corn (Zea mays); Preemergence, 125 g ai/ha): 30; Plant response rating, Corn (corn (Zea mays); Preemergence, 500 g ai/ha): 50; Plant response rating, Rice (rice (Oryza sativa)): 20; Plant response rating, Sedge, Umbrella [8]: 90; Plant response rating, Barnyardgrass [9]: 0; Plant response rating, Ducksalad [10]: 30
